The assay deals with T1, human TGR5 (Homo sapiens, UniProt Q8TDU6).
T1 construct: expressed in transfected cells; host or cells: HEK293
T1 sequence (Q8TDU6 1-330): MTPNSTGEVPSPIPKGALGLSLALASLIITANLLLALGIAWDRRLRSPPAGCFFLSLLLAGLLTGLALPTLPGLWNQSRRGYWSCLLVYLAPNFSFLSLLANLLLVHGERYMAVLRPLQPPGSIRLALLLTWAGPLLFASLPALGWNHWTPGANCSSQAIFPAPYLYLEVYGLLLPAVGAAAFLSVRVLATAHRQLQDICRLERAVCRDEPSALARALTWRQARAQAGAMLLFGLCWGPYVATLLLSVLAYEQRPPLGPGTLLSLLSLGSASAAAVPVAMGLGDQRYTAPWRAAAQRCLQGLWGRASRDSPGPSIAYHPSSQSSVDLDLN
Description: Cell-based TGR5 assay (cAMP generation, HTRF). The note with it: HEK293 cells stably transfected with human TGR5; cAMP by HTRF; 30 minutes at 37° C.; read-out: pEC50 Human TGR5 (converted). The method, boiled down:
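First, compounds in 3-fold serial dilution were placed in HBSS with 10 mM HEPES pH 7.4 and 0.5 mM IBMX. Next, human TGR5-expressing HEK293 cells were added and incubated 30 min at 37° C. Finally, cAMP was detected by HTRF and pEC50 derived by logistic fitting.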
A general note: Time-resolved FRET reads energy transfer from a long-lived donor to a nearby acceptor.
Take `Cc1ccc(SCCCCN(CCCS(C)(=O)=O)C(=O)[C@@H](O)[C@@H](O)[C@H](O)[C@@H](O)CO)cc1CNC1(c2cnccc2-c2ccccc2OC2CC2)CC1` [Compound I-548, (2S,3S,4R,5S)-N-[4-({3-[({1-[4-(2-cyclopropoxyphenyl)pyridin-3-yl]cyclopropyl}amino)methyl]-4-methylphenyl}sulfanyl)butyl]-2,3,4,5,6-pentahydroxy-N-(3-methanesulfonylpropyl) hexanamide]: the EC50 was 126 to 1000 nM.
With `Cc1ccc(SCCCCN(CCOCCO)C(=O)[C@@H](O)[C@@H](O)[C@H](O)[C@@H](O)CO)cc1CNC1(c2cnccc2-c2ccccc2OC2CC2)CC1` [Compound I-549, (2S,3S,4R,5S)-N-[4-({3-[({1-[4-(2-cyclopropoxyphenyl)pyridin-3-yl]cyclopropyl}amino)methyl]-4-methylphenyl}sulfanyl)butyl]-2,3,4,5,6-pentahydroxy-N-[2-(2-hydroxyethoxy)ethyl]hexanamide] the figure was under 100 nM; with `Cc1ccc(SCCCCN(CCCCO)C(=O)[C@@H](O)[C@@H](O)[C@H](O)[C@@H](O)CO)cc1CNC1(c2cnccc2-c2ccccc2OC2CC2)CC1` [Compound I-550, (2S,3S,4R,5S)-N-[4-({3-[({1-[4-(2-cyclopropoxyphenyl)pyridin-3-yl]cyclopropyl}amino)methyl]-4-methylphenyl}sulfanyl)butyl]-2,3,4,5,6-pentahydroxy-N-(4-hydroxybutyl)hexanamide], 126 to 1000 nM; with `Cc1ccc(SCCCCN(CCOCCO)C(=O)[C@@H](O)[C@@H](O)[C@H](O)[C@@H](O)CO)cc1COC1(c2cnccc2-c2ccccc2OC2CC2)CC1` [Compound I-551, (2S,3S,4R,5S)-N-(4-{[3-({1-[4-(2-cyclopropoxyphenyl)pyridin-3-yl]cyclopropoxy}methyl)-4-methylphenyl]sulfanyl}butyl)-2,3,4,5,6-pentahydroxy-N-[2-(2-hydroxyethoxy)ethyl]hexanamide], 126 to 1000 nM.
With `O=C([C@@H](O)[C@@H](O)[C@H](O)[C@@H](O)CO)N(CCCSc1ccc(Cl)c(CNC2(c3cnccc3-c3ccccc3OC3CC3)CC2)c1)C1CCS(=O)(=O)CC1` [Compound I-552, (2S,3S,4R,5S)-N-[3-({4-chloro-3-[({1-[4-(2-cyclopropoxyphenyl)pyridin-3-yl]cyclopropyl}amino)methyl]phenyl}sulfanyl)propyl]-N-(1,1-dioxo-1λ^6-thian-4-yl)-2,3,4,5,6-pentahydroxyhexanamide] the figure was 1260 to 10000 nM.
For `O=C([C@@H](O)[C@@H](O)[C@H](O)[C@@H](O)CO)N(CCCSc1ccc(Cl)c(CNC2(c3cnccc3-c3ccccc3OC3CC3)CC2)c1)CC1CCOCC1` [Compound I-553, (2S,3S,4R,5S)-N-[3-({4-chloro-3-[({1-[4-(2-cyclopropoxyphenyl)pyridin-3-yl]cyclopropyl}amino)methyl]phenyl}sulfanyl)propyl]-2,3,4,5,6-pentahydroxy-N-(oxan-4-ylmethyl)hexanamide], the EC50 is 126 to 1000 nM.
Next, `O=C1CCCN1CCCN(CCCCSc1ccc(Cl)c(CNC2(c3cnccc3-c3ccccc3OC3CC3)CC2)c1)C(=O)[C@@H](O)[C@@H](O)[C@H](O)[C@@H](O)CO` [Compound I-554, (2S,3S,4R,5S)-N-[4-({4-chloro-3-[({1-[4-(2-cyclopropoxyphenyl)pyridin-3-yl]cyclopropyl}amino)methyl]phenyl}sulfanyl)butyl]-2,3,4,5,6-pentahydroxy-N-[3-(2-oxopyrrolidin-1-yl)propyl]hexanamide]: 126 to 1000 nM; `CN(CCSc1ccc(Cl)c(COC2(c3cnccc3-c3ccccc3OC3CC3)CC2)c1)C(=O)[C@@H](O)[C@@H](O)[C@H](O)[C@@H](O)CO` [Compound I-555, (2S,3S,4R,5S)-N-(2-{[4-chloro-3-({1-[4-(2-cyclopropoxyphenyl)pyridin-3-yl]cyclopropoxy}methyl)phenyl]sulfanyl}ethyl)-2,3,4,5,6-pentahydroxy-N-methylhexanamide]: under 100 nM.
With `O=C([C@@H](O)[C@@H](O)[C@H](O)[C@@H](O)CO)N(CCCSc1ccc(Cl)c(COC2(c3cnccc3-c3ccccc3OC3CC3)CC2)c1)C1CCS(=O)(=O)CC1` [Compound I-556, (2S,3S,4R,5S)-N-(3-{[4-chloro-3-({-[4-(2-cyclopropoxyphenyl)pyridin-3-yl]cyclopropoxy}methyl)phenyl]sulfanyl}propyl)-N-(1,1-dioxo-1λ^6-thian-4-yl)-2,3,4,5,6-pentahydroxyhexanamide] the figure was 126 to 1000 nM; with `O=C([C@@H](O)[C@@H](O)[C@H](O)[C@@H](O)CO)N(CCCCSc1ccc(Cl)c(CNC2(c3cnccc3-c3ccccc3OC3CC3)CC2)c1)CCN1CCS(=O)(=O)CC1` [Compound I-557, (2S,3S,4R,5S)-N-[4-({4-chloro-3-[({1-[4-(2-cyclopropoxyphenyl)pyridin-3-yl]cyclopropyl}amino)methyl]phenyl}sulfanyl)butyl]-N-[2-(1,1-dioxo-1λ^6,4-thiomorpholin-4-yl)ethyl]-2,3,4,5,6-pentahydroxyhexanamide], 126 to 1000 nM; with `CS(=O)(=O)CCCN(CCCSc1ccc(Cl)c(COC2(c3cnccc3-c3ccccc3OC3CC3)CC2)c1)C(=O)[C@@H](O)[C@@H](O)[C@H](O)[C@@H](O)CO` [Compound I-558, (2S,3S,4R,5S)-N-(3-{[4-chloro-3-({1-[4-(2-cyclopropoxyphenyl)pyridin-3-yl]cyclopropoxy}methyl)phenyl]sulfanyl}propyl)-2,3,4,5,6-pentahydroxy-N-(3-methanesulfonylpropyl) hexanamide], 126 to 1000 nM.
With `CS(=O)(=O)CCN(CCCCSc1ccc(Cl)c(COC2(c3cnccc3-c3ccccc3OC3CC3)CC2)c1)C(=O)[C@@H](O)[C@@H](O)[C@H](O)[C@@H](O)CO` [Compound I-559, (2S,3S,4R,5S)-N-(4-{[4-chloro-3-({1-[4-(2-cyclopropoxyphenyl)pyridin-3-yl]cyclopropoxy}methyl)phenyl]sulfanyl}butyl)-2,3,4,5,6-pentahydroxy-N-(2-methanesulfonylethyl)hexanamide] the figure was under 100 nM; with `Cc1ccc(SCCCCN(C(=O)[C@@H](O)[C@@H](O)[C@H](O)[C@@H](O)CO)C2CCOCC2)cc1CNC1(c2cnccc2-c2ccccc2OC2CC2)CC1` [Compound I-560, (2S,3S,4R,5S)-N-[4-({3-[({1-[4-(2-cyclopropoxyphenyl)pyridin-3-yl]cyclopropyl}amino)methyl]-4-methylphenyl}sulfanyl)butyl]-2,3,4,5,6-pentahydroxy-N-(oxan-4-yl)hexanamide], 126 to 1000 nM.
Turning to `Cc1ccc(SCCCCN(CCCS(C)(=O)=O)C(=O)[C@@H](O)[C@@H](O)[C@H](O)[C@@H](O)CO)cc1COC1(c2cnccc2-c2ccccc2OC2CC2)CC1` [Compound I-561, (2S,3S,4R,5S)-N-(4-{[3-({1-[4-(2-cyclopropoxyphenyl)pyridin-3-yl]cyclopropoxy}methyl)-4-methylphenyl]sulfanyl}butyl)-2,3,4,5,6-pentahydroxy-N-(3-methanesulfonylpropyl)hexanamide], the EC50 was 126 to 1000 nM.
Next, `Cc1ccc(SCCCCN(C(=O)[C@@H](O)[C@@H](O)[C@H](O)[C@@H](O)CO)C2CCOCC2)cc1COC1(c2cnccc2-c2ccccc2OC2CC2)CC1` [Compound I-562, (2S,3S,4R,5S)-N-(4-{[3-({1-[4-(2-cyclopropoxyphenyl)pyridin-3-yl]cyclopropoxy}methyl)-4-methylphenyl]sulfanyl}butyl)-2,3,4,5,6-pentahydroxy-N-(oxan-4-yl)hexanamide]: 126 to 1000 nM.
On to `CC(=O)NCCN(CCCCSc1ccc(Cl)c(CNC2(c3cnccc3-c3ccccc3OC3CC3)CC2)c1)C(=O)[C@@H](O)[C@@H](O)[C@H](O)[C@@H](O)CO` [Compound I-563, (2S,3S,4R,5S)-N-[4-({4-chloro-3-[({1-[4-(2-cyclopropoxyphenyl)pyridin-3-yl]cyclopropyl}amino)methyl]phenyl}sulfanyl)butyl]-N-(2-acetamidoethyl)-2,3,4,5,6-pentahydroxyhexanamide], for which the EC50 is 126 to 1000 nM.
With `CC(=O)NCCN(CCCCSc1ccc(Cl)c(COC2(c3cnccc3-c3ccccc3OC3CC3)CC2)c1)C(=O)[C@@H](O)[C@@H](O)[C@H](O)[C@@H](O)CO` [Compound I-564, (2S,3S,4R,5S)-N-(4-{[4-chloro-3-({1-[4-(2-cyclopropoxyphenyl)pyridin-3-yl]cyclopropoxy}methyl)phenyl]sulfanyl}butyl)-N-(2-acetamidoethyl)-2,3,4,5,6-pentahydroxyhexanamide] the figure was under 100 nM.
Next, `O=C([C@@H](O)[C@@H](O)[C@H](O)[C@@H](O)CO)N(CCCSc1ccc(Cl)c(COC2(c3cnccc3-c3ccccc3OC3CC3)CC2)c1)C1CCOCC1` [Compound I-565, (2S,3S,4R,5S)-N-(3-{[4-chloro-3-({1-[4-(2-cyclopropoxyphenyl)pyridin-3-yl]cyclopropoxy}methyl)phenyl]sulfanyl}propyl)-2,3,4,5,6-pentahydroxy-N-(oxan-4-yl)hexanamide]: 126 to 1000 nM; `CC(=O)NCCCN(CCCCSc1ccc(Cl)c(COC2(c3cnccc3-c3ccccc3OC3CC3)CC2)c1)C(=O)[C@@H](O)[C@@H](O)[C@H](O)[C@@H](O)CO` [Compound I-566, (2S,3S,4R,5S)-N-(4-{[4-chloro-3-({1-[4-(2-cyclopropoxyphenyl)pyridin-3-yl]cyclopropoxy}methyl)phenyl]sulfanyl}butyl)-N-(3-acetamidopropyl)-2,3,4,5,6-pentahydroxyhexanamide]: under 100 nM.
